In patent publication US6689609B1, “Enhancing germination of plant somatic embryos by priming” (Cellfor Inc., priority 1999, dated 2004):

What was measured:
[1] = tested on: interior spruce somatic embryos; assay: Plant growth regulators added to horticultural growing substrate after sowing: ex vitro germination and rooting of nutriprimed interior spruce somatic embryos; format: in vivo, Picea glauca (Moench) Voss x P. engelmannii Parry ex Engelm.; conditions: primed
Source text: The second study assessing the effects of plant growth regulators on germination performance of nutriprimed somatic embryos involved additions of plant growth regulators to the horticultural growing substrates after the nutriprimed somatic embryos were sown ex vitro. In this study, somatic embryos from interior spruce genotypes 4-2809, 23-2672, and I-1026 were desiccated and stored as described for the first growth regulator study. Prior to nutripriming, genotype I-1026 was imbibed with a matripriming step which consisted of placing the desiccated embryos onto a screen, and then placing the screen on the surface of an agar substrate gelled with 3% phytogel foe 18 hrs. After this imbibition step was completed for genotype I-1026, all three genotypes were nutriprimed for 84 hr in 3% w/v sucrose m24GMD nutripriming solutions and then sown ex vitro into 400-cavity styrofoam miniplug trays filled with peat bound by a polymer (Grow-Tech Inc., San Bautista, Calif.). After sowing was completed, the nutriprimed embryo received exogenous applications of one of the treatments described in Table 8.3.
After the exogenous application of the plant growth regulator treatments, the blocks were placed onto a non-sterile high-humidity (≧95% RH) germination chamber for one week. Immediately after the trays containing ex vitro sown nutriprimed embryos were placed into the non-sterile high-humidity germination chamber, they were misted with m24GMD solution containing 3% w/v sucrose until the surfaces of the non-sterile growing substrates were well-wetted, and then at daily intervals for a period of 7 days. After the initial 7-day period in the non-sterile high-humidity germination environment, the trays were moved to a non-sterile misting chamber (RH ranged between 75-90%) for two more weeks of growth under an 18-hour photoperiod of […] PAR with day-night temperatures of 18-23° C. Daily applications of the m24GMD nutrient solution containing 3% w/v sucrose were misted onto the germinants through to the end of the two-week period in the misting chamber. Aseptic techniques or conditions were not used for application of the nutrient solutions, nor for the germination and growing environments during the 3-week culture period.
At the end of the three-week germination period, all survived germinants were counted and examined for root initiation. Germination and rooting percentages were calculated based on total number of embryos sown in each replicate.

[2] = tested on: interior spruce somatic embryos; assay: Plant growth regulators added to nutripriming solutions: ex vitro germination and rooting of interior spruce somatic embryos; format: in vivo, Picea glauca (Moench) Voss x P. engelmannii Parry ex Engelm.
Source text: Mature somatic embryos of interior spruce (Picea glauca (Moench) Voss x P. engelmannii Parry ex Engelm.) genotypes 4-2809, 23-2672, and I-1026 were desiccated with the HRHT treatment. Genotype I-1026 was further desiccated at 85% RH for three days, then stored at −20C. Prior to nutripriming, genotype I-1026 was imbibed with a matripriming step which consisted of placing the desiccated embryos onto a screen, and then placing the screen on the surface of an agar substrate gelled with 3% phytogel for 18 hrs. After this imbibition step was completed for genotype I-1026, all three genotypes were nutriprimed for 84 hr in 3% w/v sucrose m24GMD nutripriming solutions amended with the plant growth regulators described in Table 8.1.
After the nutripriming step was completed, the nutriprimed somatic embryos were sown ex vitro into 400-cavity styrofoam miniplug trays filled with peat bound by a polymer (Grow-Tech Inc., San Bautista, Calif.). After sowing, the trays were placed into a non-sterile high-humidity (≧95% RH) germination chamber for one week. In both studies, immediately after the trays containing ex vitro sown nutriprimed embryos were placed into the non-sterile high-humidity germination chamber, they were misted with m24GMD solution containing 3% w/v sucrose until the surfaces of the non-sterile growing substrates were well-wetted, and subsequently at daily intervals for a period of 7 days. After the initial 7-day period in the non-sterile high-humidity germination environment, the trays were moved to a non-sterile misting chamber (RH ranged between 75-90%) for two more weeks of growth under an 18-hour photoperiod of […] PAR with day-night temperatures of 18-23° C. Daily applications of the m24GMD nutrient solution containing 3% w/v sucrose were misted onto the germinants through to the end of the two-week period in the misting chamber. Aseptic techniques or conditions were not used for application of the nutrient solutions, or for the germination and growing environments during the 3-week culture period.
At the end of the three-week germination period, all germinated embryos and seedlings were counted and examined for root initiation. Germination and rooting percentages were calculated based on total number of embryos sown in each replicate. The rooting percentage measures the plant conversion rate since the survived germinants can have perfectly elongated and formed shoot, but without root initiation.

[3] = genotype 4-2809, HRHT, IBA 0.2 μM
[4] = genotype 4-2809, HRHT, substrate given no regulator or IBA 0.1 μM alone, + BA 0.02 μM, + BA 0.02 μM + GA4/7 0.2 μM (so in the source), or + GA4/7 0.1 μM
[5] = genotype 23-2672, HRHT, IBA 0.2 μM
[6] = genotype 23-2672, HRHT, substrate given no regulator or IBA 0.1 μM alone, + BA 0.02 μM, + BA 0.02 μM + GA4/7 0.2 μM (so in the source), or + GA4/7 0.1 μM
[7] = genotype I-1026, 85% & frozen, IBA 0.2 μM
[8] = genotype I-1026, 85% & frozen, substrate given no regulator or IBA 0.1 μM alone, + BA 0.02 μM, + BA 0.02 μM + GA4/7 0.2 μM (so in the source), or + GA4/7 0.1 μM
[9] = genotype 4-2809, HRHT, IBA 0.1 μM in priming solution
[10] = genotype 4-2809, HRHT, priming solution with no regulator or IBA 0.05 μM alone, + BA 0.01 μM, + BA 0.01 μM + GA4/7 0.01 μM, or + GA4/7 0.05 μM
[11] = genotype 23-2672, HRHT, IBA 0.1 μM in priming solution
[12] = genotype 23-2672, HRHT, priming solution with no regulator or IBA 0.05 μM alone, + BA 0.01 μM, + BA 0.01 μM + GA4/7 0.01 μM, or + GA4/7 0.05 μM
[13] = genotype I-1026, 85% & frozen, IBA 0.1 μM in priming solution
[14] = genotype I-1026, 85% & frozen, priming solution with no regulator or IBA 0.05 μM alone, + BA 0.01 μM, + BA 0.01 μM + GA4/7 0.01 μM, or + GA4/7 0.05 μM

Compound: O=C(O)CCCc1c[nH]c2ccccc12 [IBA, indole-butyric-acid]
- Germination % [1, 3]: 97.5 ± 1.4%
- Rooting % [1, 3]: 78.8 ± 7.5%
- Germination % [1, 4]: 92.5 ± 7.5%
- Rooting % [1, 4]: 75.0 ± 10.2%
- Germination % [1, 5]: 72.5 ± 10.9%
- Rooting % [1, 5]: 67.5 ± 10.1%
- Germination % [1, 6]: 72.5 ± 11. %
- Rooting % [1, 6]: 61.3 ± 13.4%
- Germination % [1, 7]: 80.0 ± 6.8%
- Rooting % [1, 7]: 65.0 ± 5.4%
- Germination % [1, 8]: 91.3 ± 5.5%
- Rooting % [1, 8]: 66.3 ± 3.7%
- Germination % [2, 9]: 68.8 ± 5.2%
- Rooting % [2, 9]: 51.3 ± 4.3%
- Germination % [2, 10]: 92.5 ± 6.0%
- Rooting % [2, 10]: 82.5 ± 6.0%
- Germination % [2, 11]: 82.5 ± 9.7%
- Rooting % [2, 11]: 72.5 ± 6.3%
- Germination % [2, 12]: 90.0 ± 3.5%
- Rooting % [2, 12]: 71.3 ± 6.6%
- Germination % [2, 13]: 88.8 ± 6.6%
- Rooting % [2, 13]: 58.8 ± 5.9%
- Germination % [2, 14]: 93.8 ± 2.4%
- Rooting % [2, 14]: 66.3 ± 4.7%
